Source: PubChem BioAssay AID248 (DTP/NCI, 2004)
Values joined by “and” are separate entries in the source; they are usually repeats but may differ in a detail not shown here. Equal values may be shown once. Inconclusive results and toxic doses are left out. No stated cut-off is given here; in the data, active means T/C of 150% or more; inactive means T/C below 125%.

System: L1210 leukemia ip in BDF1 mice, survival T/C
Assay: NCI In Vivo Anticancer Drug Screen. Data for tumor model L1210 Leukemia (intraperitoneal) in B6D2F1 (BDF1) mice
Conditions: endpoint: mean survival time, higher = longer survival
Method in brief: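 Transplantable tumor model; survival measured in treated vs vehicle control mice. Value = treated/control.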

[1] = dose: 50.0 mg/kg/injection, schedule: Q01DX009 (ip), vehicle: Klucel (hydroxypropylcellulose) (HPC)
[2] = dose: 100.0 mg/kg/injection, schedule: Q01DX009 (ip), vehicle: Klucel (hydroxypropylcellulose) (HPC)
[3] = dose: 100.0 mg/kg/injection, schedule: Q04DX002 (ip), vehicle: saline with Tween-80
[4] = dose: 200.0 mg/kg/injection, schedule: Q04DX002 (ip), vehicle: saline with Tween-80
[5] = dose: 400.0 mg/kg/injection, schedule: Q04DX002 (ip), vehicle: saline with Tween-80
[6] = dose: 100.0 mg/kg/injection, schedule: Q01DX001 (ip), vehicle: saline with Tween-80
[7] = dose: 200.0 mg/kg/injection, schedule: Q01DX001 (ip), vehicle: saline with Tween-80
[8] = dose: 100.0 mg/kg/injection, schedule: Q04DX003 (ip), vehicle: saline
[9] = dose: 200.0 mg/kg/injection, schedule: Q04DX003 (ip), vehicle: saline
[10] = dose: 400.0 mg/kg/injection, schedule: Q04DX003 (ip), vehicle: saline
[11] = dose: 50.0 mg/kg/injection, schedule: Q01DX009 (ip), vehicle: saline
[12] = dose: 100.0 mg/kg/injection, schedule: Q01DX009 (ip), vehicle: saline
[13] = dose: 100.0 mg/kg/injection, schedule: Q04DX002 (ip), vehicle: Klucel (hydroxypropylcellulose) (HPC)

Measured: T/C

Cc1c2oc3c(C)ccc(C(=O)NC4C(=O)NC(C(C)C)C(=O)N5CCCC5C(=O)N(C)CC(=O)N(C)C(C(C)C)C(=O)OC4C)c3nc-2c(C(=O)NC2C(=O)NC(C(C)C)C(=O)N3CCCC3C(=O)N(C)CC(=O)N(C)C(C(C)C)C(=O)OC2C)cc1=O (stereo unspecified)
inactive: dose: 0.1 mg/kg/injection, schedule: Q01DX009 (ip), vehicle: saline + alcohol 101 % of control | dose: 0.2 mg/kg/injection, schedule: Q01DX001 (ip), vehicle: saline + alcohol 102 % of control | dose: 0.2 mg/kg/injection, schedule: Q01DX009 (ip), vehicle: saline + alcohol 107 % of control | dose: 0.25 mg/kg/injection, schedule: Q01DX009 (ip), vehicle: saline + alcohol 101 % of control | dose: 0.4 mg/kg/injection, schedule: Q01DX001 (ip), vehicle: saline + alcohol 104 % of control | dose: 0.4 mg/kg/injection, schedule: Q01DX009 (ip), vehicle: saline + alcohol 112 % of control | dose: 0.5 mg/kg/injection, schedule: Q01DX009 (ip), vehicle: saline + alcohol 97 % of control | dose: 0.6 mg/kg/injection, schedule: Q04DX003 (ip), vehicle: saline + alcohol 101 % of control | dose: 0.8 mg/kg/injection, schedule: Q01DX001 (ip), vehicle: saline + alcohol 104 % of control | dose: 1.0 mg/kg/injection, schedule: Q01DX009 (ip), vehicle: saline + alcohol 93 % of control | dose: 1.2 mg/kg/injection, schedule: Q04DX003 (ip), vehicle: saline + alcohol 109 % of control | dose: 1.25 mg/kg/injection, schedule: Q04DX003 (ip), vehicle: saline + alcohol 96 % of control | dose: 1.6 mg/kg/injection, schedule: Q01DX001 (ip), vehicle: saline + alcohol 106 % of control | dose: 2.0 mg/kg/injection, schedule: Q01DX009 (ip), vehicle: saline + alcohol 106 % of control | dose: 2.4 mg/kg/injection, schedule: Q04DX003 (ip), vehicle: saline + alcohol 119 % of control | dose: 2.5 mg/kg/injection, schedule: Q04DX003 (ip), vehicle: saline + alcohol 97 % of control | dose: 3.2 mg/kg/injection, schedule: Q01DX001 (ip), vehicle: saline + alcohol 111 % of control | dose: 4.0 mg/kg/injection, schedule: Q01DX009 (ip), vehicle: saline + alcohol 103 % of control | dose: 5.0 mg/kg/injection, schedule: Q04DX003 (ip), vehicle: saline + alcohol 105 % of control | dose: 6.4 mg/kg/injection, schedule: Q01DX001 (ip), vehicle: saline + alcohol 117 % of control | dose: 10.0 mg/kg/injection, schedule: Q04DX003 (ip), vehicle: saline + alcohol 106 % of control | dose: 20.0 mg/kg/injection, schedule: Q04DX003 (ip), vehicle: saline + alcohol 116 % of control | dose: 12.5 micrograms/kg/injection, schedule: Q01DX009 (ip), vehicle: saline + alcohol 101 % of control | dose: 50.0 micrograms/kg/injection, schedule: Q01DX009 (ip), vehicle: saline + alcohol 103 % of control | dose: 75.0 micrograms/kg/injection, schedule: Q04DX003 (ip), vehicle: saline + alcohol 104 % of control | dose: 150.0 micrograms/kg/injection, schedule: Q04DX003 (ip), vehicle: saline + alcohol 102 % of control | dose: 300.0 micrograms/kg/injection, schedule: Q04DX003 (ip), vehicle: saline + alcohol 106 % of control

CSc1n[nH]c(=O)[nH]c1=S
inactive: dose: 100.0 mg/kg/injection, schedule: Q01DX001 (ip), vehicle: saline 96 % of control | dose: 200.0 mg/kg/injection, schedule: Q01DX001 (ip), vehicle: saline 101 % of control | dose: 400.0 mg/kg/injection, schedule: Q01DX001 (ip), vehicle: saline 95 % of control

Cc1cc(C)c(F)[c]([Hg][Br])c1N
inactive: dose: 12.5 mg/kg/injection, schedule: Q01DX009 (ip), vehicle: Klucel (hydroxypropylcellulose) (HPC) 96 % of control | dose: 37.5 mg/kg/injection, schedule: Q01DX001 (ip), vehicle: Klucel (hydroxypropylcellulose) (HPC) 94 % of control | [1] 96 % of control | [2] 89 % of control

Cc1ccccc1NC(=O)CC#N
inactive: [3] 90 % of control | [4] 101 % of control | [5] 94 % of control

C/C=C/CC1C(=O)N(c2ccccc2)N(c2ccccc2)C1=O
inactive: dose: 25.0 mg/kg/injection, schedule: Q01DX009 (ip), vehicle: Klucel (hydroxypropylcellulose) (HPC) 106 % of control | [1] 95 % of control | [2] 97 % of control

O=[N+]([O-])c1cccc(-c2nc3ncncc3[nH]2)c1
inactive: dose: 50.0 mg/kg/injection, schedule: Q01DX001 (ip), vehicle: saline with Tween-80 102 % of control | [6] 101 % of control | [7] 98 % of control

CC1(C#N)CC/C(=C\c2ccc3c(c2)OCO3)C(=O)C1 (stereo unspecified)
inactive: [8] 96 % of control | [9] 91 % of control | [10] 107 % of control

COc1ccc(Cl)cc1NC(=O)Oc1ccccc1C(N)=O
inactive: dose: 25.0 mg/kg/injection, schedule: Q01DX009 (ip), vehicle: saline 106 % of control and 113 % of control | dose: 25.0 mg/kg/injection, schedule: Q04DX002 (ip), vehicle: saline with Tween-80 104 % of control and 112 % of control | [11] 102 % of control | dose: 50.0 mg/kg/injection, schedule: Q04DX002 (ip), vehicle: saline with Tween-80 102 % of control and 91 % of control | [6] 107 % of control | dose: 100.0 mg/kg/injection, schedule: Q01DX009 (ip), vehicle: saline with Tween-80 86 % of control | [12] 98 % of control | dose: 100.0 mg/kg/injection, schedule: Q04DX003 (ip), vehicle: saline with Tween-80 104 % of control | [7] 108 % of control | [4] 110 % of control

Cc1cc(=O)c2cc(Cc3ccc4[nH]c(C)cc(=O)c4c3)ccc2[nH]1
inactive: [11] 91 % of control | [12] 88 % of control | [8] 94 % of control | [9] 94 % of control | [10] 93 % of control

O=S(=O)(c1ccccc1)C(CC(S(=O)(=O)c1ccccc1)S(=O)(=O)c1ccccc1)S(=O)(=O)c1ccccc1
inactive: [3] 119 % of control | [4] 97 % of control | [5] 90 % of control

CCNC(=O)NCc1ccccc1Cl
inactive: [13] 97 % of control | dose: 200.0 mg/kg/injection, schedule: Q04DX002 (ip), vehicle: Klucel (hydroxypropylcellulose) (HPC) 102 % of control | dose: 400.0 mg/kg/injection, schedule: Q04DX002 (ip), vehicle: Klucel (hydroxypropylcellulose) (HPC) 112 % of control

COC(=O)c1ccc(=O)c2nc3/c(=C/O)c(O)cc(=O)c3[nH]c12
inactive: dose: 23.0 micrograms/kg/injection, schedule: Q01DX001 (ip), vehicle: acetone 90 % of control | dose: 23.0 micrograms/kg/injection, schedule: Q01DX009 (ip), vehicle: saline 100 % of control | dose: 23.0 micrograms/kg/injection, schedule: Q04DX003 (ip), vehicle: saline 110 % of control | dose: 47.0 micrograms/kg/injection, schedule: Q01DX001 (ip), vehicle: acetone 93 % of control | dose: 47.0 micrograms/kg/injection, schedule: Q01DX009 (ip), vehicle: saline 113 % of control | dose: 47.0 micrograms/kg/injection, schedule: Q04DX003 (ip), vehicle: saline 97 % of control | dose: 95.0 micrograms/kg/injection, schedule: Q01DX001 (ip), vehicle: acetone 92 % of control | dose: 95.0 micrograms/kg/injection, schedule: Q04DX003 (ip), vehicle: saline 101 % of control

O=[N+]([O-])c1cccc(/C=N/NC(=S)Nc2ccccc2)c1
inactive: [2] 89 % of control | dose: 200.0 mg/kg/injection, schedule: Q01DX009 (ip), vehicle: Klucel (hydroxypropylcellulose) (HPC) 93 % of control

COc1ccc2c(c1)CCC(C)(C#N)C2=O (stereo unspecified)
inactive: dose: 100.0 mg/kg/injection, schedule: Q01DX009 (ip), vehicle: saline sonified 91 % of control | dose: 200.0 mg/kg/injection, schedule: Q01DX009 (ip), vehicle: saline sonified 96 % of control | dose: 400.0 mg/kg/injection, schedule: Q01DX009 (ip), vehicle: saline sonified 90 % of control

O=c1ccn(CCCOc2ccccc2)c(=O)[nH]1
inactive: dose: 25.0 mg/kg/injection, schedule: Q04DX002 (ip), vehicle: Klucel (hydroxypropylcellulose) (HPC) 102 % of control | dose: 50.0 mg/kg/injection, schedule: Q04DX002 (ip), vehicle: Klucel (hydroxypropylcellulose) (HPC) 102 % of control | [13] 106 % of control

CC(C)=CBr
inactive: dose: 50.0 mg/kg/injection, schedule: Q01DX009 (ip), vehicle: acetone 96 % of control | dose: 100.0 mg/kg/injection, schedule: Q01DX009 (ip), vehicle: acetone 89 % of control | dose: 200.0 mg/kg/injection, schedule: Q01DX009 (ip), vehicle: acetone 103 % of control
